Where two headings read alike, the source gives them in different places.
Legend:
[1] = rcm bond, Grubbs 2nd generation catalyst, dichloromethane, 25.0 °C
[2] = biological target: M^pro (Severe acute respiratory syndrome coronavirus 2 (2019-nCoV) (SARS-CoV-2), UniProt P0DTD1); details: read-out: M^pro IC50; GST-AVLQ-3Clpro-GP-6His; substrate MCA-AVLQSGFR-Lys(Dnp)-Lys-NH2; Ex320/Em405
Excerpt: An objective of this experiment is to detect the in vitro inhibitory activity against M^pro of the compound of the present disclosure.
Experimental steps and methods: • 1. Prepare a 1× buffer solution (modified Tris buffer solution). • 2. Transfer a to-be-tested compound to the assay plate with Echo's 100% DMSO solution to a final DMSO content of 0.5%. • 3. Prepare a mixed protein solution: Add GST-AVLQ-3Clpro-GP-6His in a 1× assay buffer solution to support the mixed protein solution. • 4. […] Add 10 μL of 2× mixed protein solution in the assay plate, centrifuge for 30s, shake for 30s, and incubate the solution at room temperature for 15 min. • 6. Add 10 μL of 2× mixed substrate solution in the assay plate, centrifuge for 30, and shake for 30s. • 7. Read the data dynamically on Synergy (Ex320/Em405).

COC(=O)[C@@H]1CCC(=O)N(C)CCCC=CCC[C@H](NC(=O)OC(C)(C)C)C(=O)N2C[C@H]3[C@@H]([C@H]2C(=O)N1)C3(C)C
ring closure, yield of all isomers ([1]; from C=CCCCN(C)C(=O)CC[C@H](NC(=O)[C@@H]1[C@@H]2[C@H](CN1C(=O)[C@H](CCC=C)NC(=O)OC(C)(C)C)C2(C)C)C(=O)OC, 5.1 mM, 16.0 h): 94%

CC1(C)[C@@H]2[C@H]3C(=O)N[C@H](C#N)CCC(=O)NCCCCCCC[C@H](NC(=O)C(F)(F)F)C(=O)N3C[C@@H]21 [Compound 1, N-((3S, 15S, 18aS, 19aR, 19bS)-3-cyano-19,19-dimethyl-1,6,16-trioxyeicosanylhydro-2H-cyclopropyl[3,4]pyrrole[1,2-a][1,4, 9]triazocyclooctadecyl-15-yl)-2,2,2-trifluoroacetamide]
IC50 [2]: 254 nM

COC(=O)[C@@H]1CCC(=O)NCCCC=CC[C@H](NC(=O)OC(C)(C)C)C(=O)N2C[C@H]3[C@@H]([C@H]2C(=O)N1)C3(C)C
ring closure, yield of all isomers ([1]; from C=CCCCNC(=O)CC[C@H](NC(=O)[C@@H]1[C@@H]2[C@H](CN1C(=O)[C@H](CC=C)NC(=O)OC(C)(C)C)C2(C)C)C(=O)OC, 3.53 mM, 16.0 h): 100%

COC(=O)[C@@H]1CCC(=O)NCCCC=CC[C@H](NC(=O)OC(C)(C)C)C(=O)N2C[C@@H]3CCC[C@@H]3[C@H]2C(=O)N1
ring closure, yield of all isomers ([1]; from C=CCCCNC(=O)CC[C@H](NC(=O)[C@@H]1[C@H]2CCC[C@H]2CN1C(=O)[C@H](CC=C)NC(=O)OC(C)(C)C)C(=O)OC, 3.75 mM, 16.0 h): 94%

CC1(C)[C@@H]2[C@H]3C(=O)N[C@H](C#N)CCC(=O)NCCCCCC[C@H](NC(=O)C(F)(F)F)C(=O)N3C[C@@H]21 [Compound 7, N-((3S, 14S, 17aS, 18aR, 18bS)-3-cyano-18,18-dimethyl-1,6,15-trioxyeicosanylhydrocyclopropyl[3,4]pyrrole[1,2-a][1,4,9]triazacycloheptanedioic acid-14-yl)-2,2,2-trifluoroacetamide]
IC50 [2]: 16 nM

COC(=O)[C@@H]1CCC(=O)NCCCC=CCCC[C@H](NC(=O)OC(C)(C)C)C(=O)N2C[C@H]3[C@@H]([C@H]2C(=O)N1)C3(C)C
ring closure, yield of all isomers ([1]; from C=CCCCNC(=O)CC[C@H](NC(=O)[C@@H]1[C@@H]2[C@H](CN1C(=O)[C@H](CCCC=C)NC(=O)OC(C)(C)C)C2(C)C)C(=O)OC, 4.53 mM, 2.0 h): 60%

CC1(C)[C@@H]2[C@H]3C(=O)N[C@H](C#N)CCC(=O)NCCC/C=C/CCC[C@H](NC(=O)C(F)(F)F)C(=O)N3C[C@@H]21 [Compound 8b, N-((3S, 16S, 19aS, 20aR, 20bS, Z/E)-3-cyano-20,20-dimethyl-1,6,17-trioxo-1,2,3,4,5,6,7,8,9,10,13,14,15,16,17,19,19a,20,20a,20b-eicosanylhydrocyclopropyl[3,4]pyrrole[1,2-a][1,4,9]triazacyclonon-16-yl)-2,2,2-trifluoroacetamide]
IC50 [2]: 138 nM

CC1(C)[C@@H]2[C@H]3C(=O)N[C@H](C#N)CCC(=O)NCCC/C=C\CC[C@H](NC(=O)C(F)(F)F)C(=O)N3C[C@@H]21 [Compound 4, N-((3S, 15S, 18aS, 19aR, 19bS, Z)-3-cyano-19,19-dimethyl-1,6,16-trioxo-1,3,4,5,6,7,8,9,10,13,14,15,16,18,18a,19,19a,19b-octadecahydro-2H-cyclopropane[3,4]pyrrole[1,2-a][1,4,9]triazacyclooctadecene-15-yl)-2,2,2-trifluoroacetamide]
IC50 [2]: 411 nM

COC(=O)[C@@H]1CCC(=O)NCCCC=CCC[C@H](NC(=O)OC(C)(C)C)C(=O)N2C[C@H]3[C@@H]([C@H]2C(=O)N1)C3(C)C
ring closure, yield of all isomers ([1]; from C=CCCCNC(=O)CC[C@H](NC(=O)[C@@H]1[C@@H]2[C@H](CN1C(=O)[C@H](CCC=C)NC(=O)OC(C)(C)C)C2(C)C)C(=O)OC, 1.73 mM, 16.0 h): 86%

CC1(C)[C@@H]2[C@H]3C(=O)N[C@H](C#N)CCC(=O)NCCCCCCCC[C@H](NC(=O)C(F)(F)F)C(=O)N3C[C@@H]21 [Compound 6, N-((3S, 16S, 19aS, 20aR, 20bS)-3-cyano-20,20-dimethyl-1,6,17-trioxydocosanylhydrocyclopropa[3,4]pyrrole[1,2-a][1,4,9]triazacyclononanedioic acid-16-yl)-2,2,2-trifluoroacetamide]
IC50 [2]: 379 nM

COC(=O)[C@@H]1CCC(=O)NCCC=Cc2cccc(c2)[C@H](NC(=O)OC(C)(C)C)C(=O)N2C[C@H]3[C@@H]([C@H]2C(=O)N1)C3(C)C
ring closure, yield of all isomers ([1]; from C=CCCNC(=O)CC[C@H](NC(=O)[C@@H]1[C@@H]2[C@H](CN1C(=O)[C@@H](NC(=O)OC(C)(C)C)c1cccc(C=C)c1)C2(C)C)C(=O)OC, 3.55 mM, 16.0 h): 20%
